Data from ChEMBL document CHEMBL4507263, “Data for DCP probe BAY-474” (2021).

Key:
[1] = molecular target: Serine/threonine-protein kinase PAK 4 (Homo sapiens) (UniProt O96013); conditions: Compound concentration 1000.0 nM
[2] = molecular target: 5-hydroxytryptamine receptor 2B (Homo sapiens) (UniProt P41595); conditions: Compound concentration 10.0 uM
[3] = molecular target: Mitogen-activated protein kinase 7 (Homo sapiens) (UniProt Q13164); conditions: Compound concentration 1000.0 nM
[4] = molecular target: Dual specificity mitogen-activated protein kinase kinase 4 (Homo sapiens) (UniProt P45985); conditions: Compound concentration 1000.0 nM
[5] = tested on: Tyrosine-protein kinase ABL1 (Homo sapiens), P00519 [H396P]; conditions: Compound concentration 1000.0 nM
[6] = molecular target: Interferon-induced, double-stranded RNA-activated protein kinase (Homo sapiens) (UniProt P19525); conditions: Compound concentration 1000.0 nM
[7] = molecular target: MAP kinase-activated protein kinase 5 (Homo sapiens) (UniProt Q8IW41); conditions: Compound concentration 1000.0 nM
[8] = molecular target: Myotonin-protein kinase (Homo sapiens) (UniProt Q09013); conditions: Compound concentration 1000.0 nM
[9] = molecular target: Ribosomal protein S6 kinase alpha-6 (Homo sapiens) (UniProt Q9UK32); conditions: Compound concentration 1000.0 nM
[10] = tested on: Epidermal growth factor receptor (Homo sapiens), P00533 [UNDEFINED MUTATION]; conditions: Compound concentration 1000.0 nM
[11] = molecular target: SRSF protein kinase 3 (Homo sapiens) (UniProt Q9UPE1); conditions: Compound concentration 1000.0 nM
[12] = tested on: Mast/stem cell growth factor receptor Kit (Homo sapiens), P10721 [V559D]; conditions: Compound concentration 1000.0 nM
[13] = molecular target: Tyrosine-protein kinase Blk (Homo sapiens) (UniProt P51451); conditions: Compound concentration 1000.0 nM
[14] = molecular target: Receptor-interacting serine/threonine-protein kinase 1 (Homo sapiens) (UniProt Q13546); conditions: Compound concentration 1000.0 nM
[15] = molecular target: Ribosomal protein S6 kinase alpha-4 (Homo sapiens) (UniProt O75676); conditions: Compound concentration 1000.0 nM
[16] = molecular target: Serine/threonine-protein kinase PRP4 homolog (Homo sapiens) (UniProt Q13523); conditions: Compound concentration 1000.0 nM
[17] = molecular target: Serine/threonine-protein kinase 35 (Homo sapiens) (UniProt Q8TDR2); conditions: Compound concentration 1000.0 nM
[18] = molecular target: Casein kinase II subunit alpha (Homo sapiens) (UniProt P68400); conditions: Compound concentration 1000.0 nM
[19] = tested on: Epidermal growth factor receptor (Homo sapiens), P00533 [UNDEFINED MUTATION]; conditions: Compound concentration 1000.0 nM; remark: listed apart in the source
[20] = molecular target: Fibroblast growth factor receptor 4 (Homo sapiens) (UniProt P22455); conditions: Compound concentration 1000.0 nM
[21] = molecular target: Mitogen-activated protein kinase kinase kinase 4 (Homo sapiens) (UniProt Q9Y6R4); conditions: Compound concentration 1000.0 nM
[22] = molecular target: T1, Muscarinic acetylcholine receptor M2 (Homo sapiens) (UniProt P08172); conditions: Compound concentration 10.0 uM
T1 sequence (whole entry): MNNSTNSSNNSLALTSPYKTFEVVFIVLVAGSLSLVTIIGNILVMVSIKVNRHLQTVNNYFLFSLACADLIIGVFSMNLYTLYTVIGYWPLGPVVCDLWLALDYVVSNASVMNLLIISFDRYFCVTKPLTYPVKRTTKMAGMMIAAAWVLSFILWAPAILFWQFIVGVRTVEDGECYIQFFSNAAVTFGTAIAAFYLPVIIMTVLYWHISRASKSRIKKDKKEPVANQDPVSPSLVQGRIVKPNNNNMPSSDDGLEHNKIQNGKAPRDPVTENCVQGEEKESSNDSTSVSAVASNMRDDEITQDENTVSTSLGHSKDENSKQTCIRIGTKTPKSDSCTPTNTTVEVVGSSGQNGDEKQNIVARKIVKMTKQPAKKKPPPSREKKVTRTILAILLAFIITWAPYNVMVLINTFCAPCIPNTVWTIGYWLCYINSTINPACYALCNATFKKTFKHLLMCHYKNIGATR

[23] = molecular target: CDK7/Cyclin H/MNAT1 (Homo sapiens) (UniProt P51946+P50613+P51948); assay: CDK7/cyclinH/MAT1 (h) Millipore kinase activity assay; type: protein-complex assay; conditions: Compound concentration 1.0 uM
[24] = molecular target: Eukaryotic elongation factor 2 kinase (Homo sapiens) (UniProt O00418); assay: eEF-2K (h) Millipore kinase activity assay; conditions: Compound concentration 1.0 uM
[25] = molecular target: Ribosomal protein S6 kinase alpha-1 (Homo sapiens) (UniProt Q15418); assay: Rsk1 (h) Millipore kinase activity assay; conditions: Compound concentration 1.0 uM
[26] = molecular target: Mitogen-activated protein kinase kinase kinase 9 (Homo sapiens) (UniProt P80192); assay: MLK1 (h) Millipore kinase activity assay; conditions: Compound concentration 1.0 uM
[27] = molecular target: Sodium-dependent serotonin transporter (Homo sapiens) (UniProt P31645); conditions: Compound concentration 10.0 uM
[28] = molecular target: L-type calcium channel, dihydropyridine site (Cav1.2 alpha-1C) (Homo sapiens, UniProt Q13936); assay: Inhibition of Calcium Channel L-Type, Dihydropyridine at 10 µM in the Eurofins-Panlabs radioligand binding assay (Eurofins_assay_214600); set-up: ligand concentration 0.1 nM, non-specific ligand with concentration 1 µM Nitrendipine, incubation time 90 min, incubation temperature 25 °C; conditions: Wistar, rat, rat cerebral cortex preparation, probe [3H] Nitrendipine; compound concentration 10 uM; target entry is the homologue from another species
[29] = molecular target: D(2) dopamine receptor (Homo sapiens) (UniProt P14416); conditions: Compound concentration 10.0 uM
[30] = molecular target: Dual specificity mitogen-activated protein kinase kinase 6 (Homo sapiens) (UniProt P52564); assay: MKK6 (h) Millipore kinase activity assay; conditions: Compound concentration 1.0 uM
[31] = molecular target: Serine/threonine-protein kinase 17A (Homo sapiens) (UniProt Q9UEE5); assay: DRAK1 (h) Millipore kinase activity assay; conditions: Compound concentration 1.0 uM
[32] = molecular target: Serine/threonine-protein kinase 4 (Homo sapiens) (UniProt Q13043); assay: MST1 (h) Millipore kinase activity assay; conditions: Compound concentration 1.0 uM
[33] = molecular target: 5-hydroxytryptamine receptor 2B (Homo sapiens) (UniProt P41595); conditions: Compound concentration 10.0 uM; remark: listed apart in the source
Homo sapiens = organism: Homo sapiens; assay: Inhibition of Nicotinic Acetylcholine at compound concentration of 10.0 uM in the Eurofins-Panlabs radioligand binding assay (Eurofins_assay_258590); type: protein-complex assay; conditions: Compound concentration 10.0 uM
[34] = molecular target: Dual specificity mitogen-activated protein kinase kinase 4 (Mus musculus) (UniProt P47809); assay: MKK4 (m) Millipore kinase activity assay; conditions: Compound concentration 1.0 uM
[35] = molecular target: Mitogen-activated protein kinase kinase kinase kinase 2 (Homo sapiens) (UniProt Q12851); assay: GCK (h) Millipore kinase activity assay; conditions: Compound concentration 1.0 uM
[36] = molecular target: Serine/threonine-protein kinase TAO3 (Homo sapiens) (UniProt Q9H2K8); assay: TAO3 (h) Millipore kinase activity assay; conditions: Compound concentration 1.0 uM
Serine/threonine-protein kinase TAO3 (Homo sapiens), sequence (Q9H2K8 whole entry): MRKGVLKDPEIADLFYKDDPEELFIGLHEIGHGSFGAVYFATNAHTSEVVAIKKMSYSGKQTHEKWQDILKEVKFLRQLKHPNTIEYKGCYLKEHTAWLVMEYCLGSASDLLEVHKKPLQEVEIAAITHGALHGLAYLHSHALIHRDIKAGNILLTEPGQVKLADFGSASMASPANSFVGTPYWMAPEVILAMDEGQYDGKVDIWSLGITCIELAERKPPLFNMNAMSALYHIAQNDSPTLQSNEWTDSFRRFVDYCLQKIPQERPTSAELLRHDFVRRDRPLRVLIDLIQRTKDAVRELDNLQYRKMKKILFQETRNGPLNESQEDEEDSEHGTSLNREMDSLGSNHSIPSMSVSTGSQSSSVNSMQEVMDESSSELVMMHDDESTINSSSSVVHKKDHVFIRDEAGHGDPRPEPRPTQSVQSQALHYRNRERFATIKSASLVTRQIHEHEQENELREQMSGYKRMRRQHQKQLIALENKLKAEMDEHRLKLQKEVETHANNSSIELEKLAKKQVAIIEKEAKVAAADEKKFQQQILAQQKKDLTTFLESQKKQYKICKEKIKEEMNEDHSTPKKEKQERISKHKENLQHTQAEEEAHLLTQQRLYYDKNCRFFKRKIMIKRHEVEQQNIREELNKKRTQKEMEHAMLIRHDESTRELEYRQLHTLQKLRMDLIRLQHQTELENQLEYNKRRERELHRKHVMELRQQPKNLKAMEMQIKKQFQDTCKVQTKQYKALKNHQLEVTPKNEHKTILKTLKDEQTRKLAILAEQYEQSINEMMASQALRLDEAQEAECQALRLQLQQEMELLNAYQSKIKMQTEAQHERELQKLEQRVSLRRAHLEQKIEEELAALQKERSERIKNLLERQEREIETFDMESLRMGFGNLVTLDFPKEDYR

Epidermal growth factor receptor (Homo sapiens), P00533 [UNDEFINED MUTATION], sequence (P00533 whole entry, looked up, change not shown): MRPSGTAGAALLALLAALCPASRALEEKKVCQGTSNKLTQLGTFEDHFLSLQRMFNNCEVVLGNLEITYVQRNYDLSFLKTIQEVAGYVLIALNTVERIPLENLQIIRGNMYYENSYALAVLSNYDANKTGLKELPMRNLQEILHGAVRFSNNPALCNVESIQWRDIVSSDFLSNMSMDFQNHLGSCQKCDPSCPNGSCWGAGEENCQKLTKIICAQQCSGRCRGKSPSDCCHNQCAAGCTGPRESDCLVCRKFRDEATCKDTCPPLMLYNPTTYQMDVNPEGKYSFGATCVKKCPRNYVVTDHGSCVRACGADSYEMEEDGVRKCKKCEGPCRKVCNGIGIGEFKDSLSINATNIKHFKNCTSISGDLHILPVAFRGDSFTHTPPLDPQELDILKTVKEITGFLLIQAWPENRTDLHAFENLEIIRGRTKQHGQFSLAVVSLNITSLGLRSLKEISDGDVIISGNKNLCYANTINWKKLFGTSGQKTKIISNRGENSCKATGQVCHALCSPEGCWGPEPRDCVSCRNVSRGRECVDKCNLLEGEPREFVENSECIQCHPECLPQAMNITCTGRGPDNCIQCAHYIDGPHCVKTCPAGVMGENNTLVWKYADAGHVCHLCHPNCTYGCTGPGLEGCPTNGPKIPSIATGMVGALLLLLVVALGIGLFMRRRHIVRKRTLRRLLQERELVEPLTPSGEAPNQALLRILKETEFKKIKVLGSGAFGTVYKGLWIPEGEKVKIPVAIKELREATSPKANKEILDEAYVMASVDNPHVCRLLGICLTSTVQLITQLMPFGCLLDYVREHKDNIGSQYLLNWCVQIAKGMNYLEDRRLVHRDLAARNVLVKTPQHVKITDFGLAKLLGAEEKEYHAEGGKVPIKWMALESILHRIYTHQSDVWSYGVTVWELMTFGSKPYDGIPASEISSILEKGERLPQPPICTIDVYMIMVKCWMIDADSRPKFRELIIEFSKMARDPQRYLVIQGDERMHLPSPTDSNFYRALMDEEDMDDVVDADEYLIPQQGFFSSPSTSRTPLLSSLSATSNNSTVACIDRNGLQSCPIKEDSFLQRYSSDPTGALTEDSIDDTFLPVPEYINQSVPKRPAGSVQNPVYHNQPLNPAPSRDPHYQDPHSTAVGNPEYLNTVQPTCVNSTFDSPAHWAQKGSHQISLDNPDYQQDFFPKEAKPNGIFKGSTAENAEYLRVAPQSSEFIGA
5-hydroxytryptamine receptor 2B (Homo sapiens), sequence (P41595 whole entry): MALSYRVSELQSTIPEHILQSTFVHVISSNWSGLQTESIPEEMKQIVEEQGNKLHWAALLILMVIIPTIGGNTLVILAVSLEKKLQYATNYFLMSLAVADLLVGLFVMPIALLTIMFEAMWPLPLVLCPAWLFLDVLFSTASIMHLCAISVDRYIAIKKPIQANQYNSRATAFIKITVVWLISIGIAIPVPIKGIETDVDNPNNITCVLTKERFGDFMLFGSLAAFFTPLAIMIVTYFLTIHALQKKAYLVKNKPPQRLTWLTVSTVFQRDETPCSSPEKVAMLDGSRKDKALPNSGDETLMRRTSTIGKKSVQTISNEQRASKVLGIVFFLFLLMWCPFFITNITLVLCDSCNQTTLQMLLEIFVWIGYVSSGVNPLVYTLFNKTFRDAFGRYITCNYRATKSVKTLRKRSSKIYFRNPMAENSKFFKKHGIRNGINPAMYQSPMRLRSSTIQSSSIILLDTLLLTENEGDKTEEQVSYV
Mast/stem cell growth factor receptor Kit (Homo sapiens), P10721 [V559D], sequence (P10721 whole entry V559D): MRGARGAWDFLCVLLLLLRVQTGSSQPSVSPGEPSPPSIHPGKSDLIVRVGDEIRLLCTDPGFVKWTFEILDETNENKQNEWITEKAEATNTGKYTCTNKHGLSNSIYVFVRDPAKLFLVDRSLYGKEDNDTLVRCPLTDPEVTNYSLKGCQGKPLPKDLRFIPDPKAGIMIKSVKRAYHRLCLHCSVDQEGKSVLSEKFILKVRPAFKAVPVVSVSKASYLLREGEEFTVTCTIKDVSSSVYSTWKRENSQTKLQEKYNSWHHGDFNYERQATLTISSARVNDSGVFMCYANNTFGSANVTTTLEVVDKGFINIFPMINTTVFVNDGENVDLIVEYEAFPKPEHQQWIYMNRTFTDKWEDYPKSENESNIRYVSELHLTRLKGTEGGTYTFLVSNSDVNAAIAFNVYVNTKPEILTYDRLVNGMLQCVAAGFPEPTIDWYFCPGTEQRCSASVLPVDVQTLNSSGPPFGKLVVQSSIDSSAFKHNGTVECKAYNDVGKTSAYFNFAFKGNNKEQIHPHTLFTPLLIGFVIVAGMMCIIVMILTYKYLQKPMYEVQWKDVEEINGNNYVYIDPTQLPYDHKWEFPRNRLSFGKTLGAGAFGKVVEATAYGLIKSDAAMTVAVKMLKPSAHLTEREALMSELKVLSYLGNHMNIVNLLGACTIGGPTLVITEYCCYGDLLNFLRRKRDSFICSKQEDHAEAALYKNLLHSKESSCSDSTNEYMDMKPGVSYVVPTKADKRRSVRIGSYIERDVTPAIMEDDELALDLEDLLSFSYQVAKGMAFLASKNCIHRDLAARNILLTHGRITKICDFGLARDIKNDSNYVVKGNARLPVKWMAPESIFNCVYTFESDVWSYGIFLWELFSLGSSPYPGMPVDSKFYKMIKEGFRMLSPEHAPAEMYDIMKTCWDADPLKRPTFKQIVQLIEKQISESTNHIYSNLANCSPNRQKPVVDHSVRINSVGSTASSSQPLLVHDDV
Sodium-dependent serotonin transporter (Homo sapiens), sequence (P31645 whole entry, looked up): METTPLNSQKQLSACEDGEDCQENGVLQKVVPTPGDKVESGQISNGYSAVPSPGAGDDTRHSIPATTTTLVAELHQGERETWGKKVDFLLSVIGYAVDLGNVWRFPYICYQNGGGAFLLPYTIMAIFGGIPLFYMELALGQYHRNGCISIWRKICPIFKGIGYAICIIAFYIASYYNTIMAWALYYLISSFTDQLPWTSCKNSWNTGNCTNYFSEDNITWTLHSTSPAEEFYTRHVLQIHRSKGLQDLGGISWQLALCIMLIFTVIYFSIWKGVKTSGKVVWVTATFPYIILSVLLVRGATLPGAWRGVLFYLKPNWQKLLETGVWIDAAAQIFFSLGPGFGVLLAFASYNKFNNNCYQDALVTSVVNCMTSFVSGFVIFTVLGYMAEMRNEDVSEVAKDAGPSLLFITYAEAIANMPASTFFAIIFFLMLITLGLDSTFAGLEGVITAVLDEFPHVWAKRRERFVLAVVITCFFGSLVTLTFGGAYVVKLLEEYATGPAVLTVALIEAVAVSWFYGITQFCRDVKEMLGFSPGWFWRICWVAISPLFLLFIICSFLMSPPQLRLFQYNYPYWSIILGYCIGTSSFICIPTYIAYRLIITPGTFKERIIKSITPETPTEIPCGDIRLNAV
Mitogen-activated protein kinase kinase kinase kinase 2 (Homo sapiens), sequence (Q12851 whole entry, looked up): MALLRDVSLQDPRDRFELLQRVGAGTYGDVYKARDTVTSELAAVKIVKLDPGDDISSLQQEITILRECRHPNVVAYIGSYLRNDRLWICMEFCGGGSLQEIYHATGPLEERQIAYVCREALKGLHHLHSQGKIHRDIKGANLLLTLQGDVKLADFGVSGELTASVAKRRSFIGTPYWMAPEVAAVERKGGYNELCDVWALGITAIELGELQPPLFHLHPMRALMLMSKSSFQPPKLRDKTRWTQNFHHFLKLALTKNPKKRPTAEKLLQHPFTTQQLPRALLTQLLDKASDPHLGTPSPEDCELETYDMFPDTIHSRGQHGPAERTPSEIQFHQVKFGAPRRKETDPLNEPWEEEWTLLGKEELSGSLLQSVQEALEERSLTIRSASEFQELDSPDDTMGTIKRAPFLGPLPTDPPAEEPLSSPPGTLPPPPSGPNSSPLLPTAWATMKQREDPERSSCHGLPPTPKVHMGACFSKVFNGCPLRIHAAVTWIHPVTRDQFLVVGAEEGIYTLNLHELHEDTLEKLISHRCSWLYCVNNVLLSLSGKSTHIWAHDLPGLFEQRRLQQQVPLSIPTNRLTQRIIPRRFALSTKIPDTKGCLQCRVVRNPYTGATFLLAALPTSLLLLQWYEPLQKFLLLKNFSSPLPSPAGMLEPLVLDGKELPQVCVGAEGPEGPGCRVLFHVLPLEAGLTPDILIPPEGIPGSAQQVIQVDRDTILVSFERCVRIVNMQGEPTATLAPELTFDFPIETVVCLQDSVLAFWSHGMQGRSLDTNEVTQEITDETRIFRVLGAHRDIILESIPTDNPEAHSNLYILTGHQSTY

## CC1=C(C#N)[C@@H](c2ccc3[nH]nc(C)c3c2)C(C#N)=C(c2ccc(Cl)cc2)N1 [BAY-827]
[1]
  residual activity: 100%
[2]
  inhibition: -7.44%
[3]
  residual activity: 90%
[4]
  residual activity: 71.5%
[5]
  residual activity: 100%
[6]
  residual activity: 74.1%
[7]
  residual activity: 100%
[8]
  residual activity: 100%
[9]
  residual activity: 100%
[10]
  residual activity: 80.4%
[11]
  residual activity: 100%
[12]
  residual activity: 100%
[13]
  residual activity: 100%
[14]
  residual activity: 94.6%
[15]
  residual activity: 100%
[16]
  residual activity: 100%
[17]
  residual activity: 100%
[18]
  residual activity: 100%
[19]
  residual activity: 79.5%
[20]
  residual activity: 100%
[21]
  residual activity: 67.9%

## CC1=C(C#N)C(c2ccc3[nH]nc(C)c3c2)C(C#N)=C(C)N1 [BAY-474]
[22]
  inhibition: 0%
[23]
  inhibition: -1%
[24]
  inhibition: -5%
[25]
  inhibition: 46%
[26]
  inhibition: -1%
[27]
  inhibition: -3.41%
[28]
  inhibition at 90 min, 10 µM: 0% (not active)
[29]
  inhibition: 2%
[30]
  inhibition: 5%
[31]
  inhibition: -6%
[32]
  inhibition: 19%
[33]
  inhibition: 4%
Homo sapiens
  inhibition: -1%
[34]
  inhibition: 31%
[35]
  inhibition: 1%
[36]
  inhibition: -8%
